From EP1891948A1, “Treatment of neurological and neuropsychological disorders” (Probiodrug AG, priority 2000, dated 2002)

Legend:
[1] = cited from earlier work; for anxiety in the elevated plus-maze and social interaction tests: blockade of amygdala NPY Y1R, low stress conditions, Kask et al., 1998b, Sajdyk, 1999
WistarF/Han (WF) rats [2] = assay: Social interaction (SI) test with Y1R antagonist pre-treatment (Example 4); type: in vivo; conditions: Fig. 10
Description: (§1) Animals. Male WistarF/Han (WF) rats (Central Animal Laboratory, Hannover Medical School, Hannover, Germany, see http://www.mh-hannover.de/institut/tierlabor/wf.htm for details), weighing 330±31 g±SD, were housed in a sound-proof, temperature controlled (24.0±0.5°C) room under specific pathogen free conditions with a 12/12h dark/light cycle (lights on at 07.00 with illumination level of 80 Lux). Food (Altromin lab chow pellets) and tap water were available ad libitum. Under ketamine/xylasine (100/5 mg/kg, i.p.) anesthesia, the rats were fixed in a Kopf stereotaxic frame and implanted with cannulae (Plastic One, Inc., Roanoke, VA, USA) above the lateral ventricle. All research and animal care procedures were approved by the Lower Saxony district government (Hannover, Germany) and followed principles described in the European Community's Council Directive of 24 November 1986 (86/609/EEC).
Surgery and i.c.v. application. […]
Animals were randomly divided into eight experimental groups (n=6-8/group), which completed one SI test of anxiety: (1) aCSF+aCSF+aCSF; (2) BIBP+aCSF+aCSF; (3) aCSF+isoleucyl thiazolidine+aCSF; (4) BIBP+isoleucyl thiazolidine+aCSF; (5) aCSF+aCSF+NPY; (6) BIBP+aCSF+NPY; (7) aCSF+P32/89+NPY; (8) BIBP+isoleucyl thiazolidine+NPY. […] The time spent in active social interaction (SI-time), 1h, and 12h food-intake were measured. […]
Social interaction (SI) test. […] Behavior was monitored using a video camera placed above the field inside the testing/isolation box. The SI behavior of both rats was recorded on-line from a monitor placed outside on top of the box. The following parameters were scored by an observer (HPN) unaware of the substrain of rats: duration of time spent in sniffing, following, crawling under and over other rats, but not passive body contact (resting, sleeping). […]
(§2) Statistical analysis. Data obtained from the measures SI time and 1h food intake were analyzed by one-way (factor: "treatment") ANOVA. […]

rats = conditions: administered into the dorsal periaqueductal gray matter; Kask et al., 1998d; cited from earlier work
WistarF/Han (WF) rats [3] = assay: 1h food intake with Y1R antagonist pre-treatment (Example 4); type: in vivo; conditions: i.c.v., BIBP3226 100nmol pre-treatment; isoleucyl thiazolidine 50nmol; NPY 0.8nmol; Fig. 11
Description: as §1
(§3) Surgery and i.c.v. application. For surgery, rats were anesthetized and prepared with i.c.v. cannulae (coordinates: A:-0.7mm caudal, L:1.4mm lateral to bregma; and V3.2mm ventral to the skull surface; tooth bar +3.0 above ear bars) using standard stereotaxic procedures as described in detail elsewhere (von Hörsten et al., 1998a,b,c). After a 7-day recovery period, successful ventricle cannulation was confirmed by an angiotensin drinking response (von Hörsten et al., 1998a). Rats showing a positive drinking response (n=56) were then habituated to experimental handling by daily sham injections for seven days.
Animals were randomly divided into eight experimental groups (n=6-8/group), which completed one SI test of anxiety: (1) aCSF+aCSF+aCSF; (2) BIBP+aCSF+aCSF; (3) aCSF+isoleucyl thiazolidine+aCSF; (4) BIBP+isoleucyl thiazolidine+aCSF; (5) aCSF+aCSF+NPY; (6) BIBP+aCSF+NPY; (7) aCSF+P32/89+NPY; (8) BIBP+isoleucyl thiazolidine+NPY. Animals in each group were treated in an identical way in each phase, receiving i.c.v. injections -60mins and -55min before behavioral testing. Experiments spanned two nights with groups counterbalances on both dark cycles. The injection cannula was attached to a Hamilton microsyringe with approximately 30cm of polyethylene tubing and all compounds were infused in a total volume of 5.0µl at a rate of 5.0 µl/min using a TSE multichannel infusion pump (Bad Homburg, Germany). The time spent in active social interaction (SI-time), 1h, and 12h food-intake were measured.
Peptides and Antagonist. Rat neuropeptide Y1-36 was obtained from Polypeptide Laboratories (Wolfenbüttel, Germany). The NPY Y1 receptor antagonist BIBP3226 was purchased from American Peptide Company, Sunnyvale, CA, USA (Cat#:60-1-22B). […]
as §2

WistarF/Han (WF) rats [4] = assay: 1h and 12h food intake after combined i.c.v. treatment (Example 3); type: in vivo; conditions: single agents or combination, isoleucyl thiazolidine 5pmol-500nmol, NPY 50pmol-1.6nmol, Fig. 8
Description: as §1, with “330-370g,” for “330±31 g±SD,”
as §3, with “(n=59)” for “(n=56)”
Animals were randomly divided into two sets of four experimental groups (n=5-6/group), which completed different consecutive SI test of anxiety. […] The time spent in active social interaction (SI-time), 1h and 12h food-intake were measured. […]
Statistical analysis. Data from repeated observations (food intake) were analyzed by two-way analyses of variance for repeated measures (ANOVA) (factors: "substrain" and "food intake" as repeated measure). Data obtained from simple measures such as DP IV activity or SI time were analyzed by one-way (factor: "substrain") ANOVA. […]

[5] = system: olfactory bulbectomized rats; conditions: 7-day i.c.v. administration; Song et al., 1996; cited from earlier work
[6] = i.c.v. injection, Kask et al. (1996)

Row | Molecule | anxiety in the elevated plus-maze and social interaction tests [1] | effect on isoleucyl thiazolidine-induced potentiation of the NPY mediated anxiolytic-like effect on SI behavior (WistarF/Han (WF) rats [2]; i.c.v. pre-treatment, BIBP3226 100nmol) | time spent in active social interaction (rats) | 1h feeding under Y1R blockade (WistarF/Han (WF) rats [3]) | effect in the elevated plus-maze test [1, 6] | locomotor effect [1, 6] | anxiolytic-like effect in the SI test under Y1 receptor blockade (WistarF/Han (WF) rats [2]; i.c.v., BIBP3226 100nmol pre-treatment, isoleucyl thiazolidine 50nmol, NPY 0.8nmol) | amount of food eaten within 1h (WistarF/Han (WF) rats [4]) | behavioral and neurotransmitters deficits [5]
1 | NC(=O)NCc1ccc(CNC(=O)[C@@H](CCCN=C(N)N)NC(=O)C(c2ccccc2)c2ccccc2)cc1 [BIB03304] | did not increase anxiety | – | – | – | – | – | – | – | –
2 | NC(N)=NCCC[C@@H](NC(=O)C(c1ccccc1)c1ccccc1)C(=O)NCc1ccc(O)cc1 [BIBP3226] | did not increase anxiety | can block | decreased | only partly affected | anxiogenic-like effects | without any locomotor deficit | – | – | –
3 | NPY: Rat neuropeptide Y1-36 obtained from Polypeptide Laboratories | – | – | – | only partly mediated by the Y1R | – | – | antagonized | "u-shaped" dose-dependent feeding effect | attenuated
